Measured values taken from ChEMBL document CHEMBL1201862, “PubChem BioAssay data set” (2004).
The source made the active and inactive calls.

Tests used:
[1] = viability of HCT116 lacking mutant beta-catenin – cell-based, human colon tumor, dose response (AID 1045); type: functional;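 further: HCT116 colon tumor cells with beta catenin knocked out; cells exposed to compound for 60 hours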
[2] = viability of PTEN-deleted HCT116 cells – cell-based, HCT116 PTEN knockout, dose response (AID 1047); type: functional;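 further: HCT116 colon tumor cells with PTEN knocked out; cells exposed to compound for 60 hours before readout; potency for loss of cell viability measured by luminescence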
[3] = molecular target: FAD-linked sulfhydryl oxidase ALR (Homo sapiens, UniProt P55789); assay: ALR-catalysed DTT oxidation blockers – biochemical, H2O2 detection, luminescence, cherry-pick, dose response (AID 493248)
FAD-linked sulfhydryl oxidase ALR, sequence (P55789 whole entry): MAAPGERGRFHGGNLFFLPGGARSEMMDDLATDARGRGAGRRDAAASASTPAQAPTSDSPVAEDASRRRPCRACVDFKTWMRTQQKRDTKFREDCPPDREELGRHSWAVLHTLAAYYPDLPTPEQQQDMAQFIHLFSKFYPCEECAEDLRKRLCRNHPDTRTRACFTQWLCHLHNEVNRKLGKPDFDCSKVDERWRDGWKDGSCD

H4 = assay: Luminescence Cell-Based Dose Response HTS to Identify Activators of 5'UTR Stem-Loop Driven Prion Protein mRNA Translation in H4 Neuroglioblastoma Cells. [Related pubchem assays: 1829 (Project Summary), 1814 (Primary HTS)]; type: functional; details: Homo sapiens
[4] = Luminescence Cell-Based Dose Response HTS to Identify Activators of Luciferase Translation or Activity in H4 […] Cells. [Related pubchem assays: 1829 (Project Summary), 1814 (Primary HTS)]; type: functional
[5] = Luminescence Cell-Based Dose Confirmation HTS to Identify Activators of 5'UTR Stem-Loop Driven Alpha-Synuclein mRNA Translation in H4 Neuroglioblastoma Cells. [Related pubchem assays: 1829 (Project Summary), 1814 (Primary HTS)]; type: functional
[6] = molecular target: T1, Ubiquitin-conjugating enzyme E2 N (Homo sapiens, UniProt P61088); type: functional;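 further: Dose-response confirmation in a TR-FRET assay detecting UBC13-driven polyubiquitin chain formation, inhibition measured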
T1 sequence (P61088 whole entry): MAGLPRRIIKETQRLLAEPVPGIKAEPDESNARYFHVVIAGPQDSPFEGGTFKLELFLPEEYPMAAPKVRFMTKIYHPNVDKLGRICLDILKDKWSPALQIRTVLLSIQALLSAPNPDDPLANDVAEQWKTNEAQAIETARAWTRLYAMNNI

Cytochrome P450 2D6 = Cytochrome P450 2D6 (Homo sapiens, UniProt P10635);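 further: CYP2D6 member of a cytochrome P450 panel assay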
Cytochrome P450 2D6, sequence (P10635 whole entry): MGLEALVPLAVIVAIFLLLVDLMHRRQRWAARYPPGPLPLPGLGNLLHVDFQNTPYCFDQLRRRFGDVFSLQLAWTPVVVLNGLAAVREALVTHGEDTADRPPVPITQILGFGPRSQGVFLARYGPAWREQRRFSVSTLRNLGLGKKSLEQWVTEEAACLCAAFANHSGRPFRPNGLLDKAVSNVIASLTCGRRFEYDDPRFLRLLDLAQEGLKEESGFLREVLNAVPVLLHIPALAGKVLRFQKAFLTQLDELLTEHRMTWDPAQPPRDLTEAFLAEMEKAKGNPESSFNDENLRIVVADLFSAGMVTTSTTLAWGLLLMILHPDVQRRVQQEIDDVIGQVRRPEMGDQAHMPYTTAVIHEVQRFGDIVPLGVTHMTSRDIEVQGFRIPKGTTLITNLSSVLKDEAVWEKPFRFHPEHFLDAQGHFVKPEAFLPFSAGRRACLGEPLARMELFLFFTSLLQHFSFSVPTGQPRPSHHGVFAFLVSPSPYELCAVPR

Cytochrome P450 1A2 = molecular target: T2, Cytochrome P450 1A2 (Homo sapiens, UniProt P05177);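 further: PubChem cytochrome P450 panel assay, CYP1A2 panel member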
T2 sequence (P05177 whole entry): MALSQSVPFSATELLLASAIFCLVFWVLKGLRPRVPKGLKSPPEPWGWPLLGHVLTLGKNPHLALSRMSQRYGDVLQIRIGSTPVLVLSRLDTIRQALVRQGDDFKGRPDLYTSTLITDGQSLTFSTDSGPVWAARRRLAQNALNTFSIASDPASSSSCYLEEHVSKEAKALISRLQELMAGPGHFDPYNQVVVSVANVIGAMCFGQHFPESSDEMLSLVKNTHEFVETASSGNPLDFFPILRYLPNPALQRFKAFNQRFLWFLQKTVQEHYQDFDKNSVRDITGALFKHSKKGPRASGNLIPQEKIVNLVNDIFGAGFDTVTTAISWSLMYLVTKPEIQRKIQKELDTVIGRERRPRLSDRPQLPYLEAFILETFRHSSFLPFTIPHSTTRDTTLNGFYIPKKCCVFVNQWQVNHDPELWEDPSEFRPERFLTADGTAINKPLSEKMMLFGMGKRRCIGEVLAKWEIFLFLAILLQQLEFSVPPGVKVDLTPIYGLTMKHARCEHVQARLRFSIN

[7] = Luminescence Cell-Based Dose Retest to Confirm Inhibitors of Cancer Stem Cells. [Related pubchem assays (depositor defined):AID2717, AID2721]; type: functional; details: Homo sapiens
[8] = molecular target: T3, Carboxy-terminal domain RNA polymerase II polypeptide A small phosphatase 1 (Homo sapiens, UniProt Q9GZU7); assay: CTDSP1 inhibitors, concentration-response, biochemical, absorbance readout, ultra-high-throughput screen actives (AID 540297); type: functional
T3 sequence (Q9GZU7 whole entry): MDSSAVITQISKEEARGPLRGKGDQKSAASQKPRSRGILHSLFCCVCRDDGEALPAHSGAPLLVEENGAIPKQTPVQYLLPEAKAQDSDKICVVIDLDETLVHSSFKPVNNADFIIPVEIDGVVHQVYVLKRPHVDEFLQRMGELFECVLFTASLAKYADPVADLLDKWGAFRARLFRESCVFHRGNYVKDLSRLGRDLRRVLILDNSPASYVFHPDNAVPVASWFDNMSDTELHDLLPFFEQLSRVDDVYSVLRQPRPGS

[9] = Trypanosoma cruzi growth suppression in host cells – NIH3T3 host cells, beta-gal luminescence, confirmation (AID 2044); type: functional, cell-based;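 further: intracellular parasites grown in NIH/3T3 mouse fibroblasts as host cells; luminescent beta-galactosidase reporter signal from transgenic T. cruzi replicating inside host cells; inhibitors lower the luminescence signal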
Streptokinase A = molecular target: T4, Streptokinase A (Streptococcus pyogenes serotype M1, UniProt P10520); assay: viability-normalized secreted streptokinase activity reduction – plasminogen activation absorbance, OD405, dose response (AID 1914); type: functional, Streptococcus pyogenes M1 GAS;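 further: secreted streptokinase activity via plasminogen activation per viability signal from cell pellet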
T4 sequence (P10520 whole entry): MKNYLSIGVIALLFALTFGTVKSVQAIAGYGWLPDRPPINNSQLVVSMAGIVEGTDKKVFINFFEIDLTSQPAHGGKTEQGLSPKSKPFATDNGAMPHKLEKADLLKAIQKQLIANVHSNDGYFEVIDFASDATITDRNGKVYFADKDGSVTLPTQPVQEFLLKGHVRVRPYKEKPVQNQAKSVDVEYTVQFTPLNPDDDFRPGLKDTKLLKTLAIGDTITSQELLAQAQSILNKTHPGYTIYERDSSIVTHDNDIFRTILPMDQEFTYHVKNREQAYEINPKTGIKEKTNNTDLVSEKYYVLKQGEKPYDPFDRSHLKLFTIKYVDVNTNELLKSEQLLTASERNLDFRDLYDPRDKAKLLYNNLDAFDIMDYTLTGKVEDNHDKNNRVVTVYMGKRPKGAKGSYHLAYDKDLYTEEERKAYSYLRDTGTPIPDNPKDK

Streptococcus = assay: GAS UMAA2166 growth inhibition – luminescence, BacTiterGlo, counter-screen for streptokinase expression inhibitor project, dose response (AID 1915); type: functional, organism-based;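 further: potency for reduction of bacterial viability or growth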
[10] = test system: Streptococcus sp. 'group A'; assay: Streptococcus pyogenes SK(-)GAS viability under kanamycin – luminescence, BacTiterGlo, confirmation, counter-screen for streptokinase expression inhibitor project, dose response (AID 1900); type: functional, organism-based
[11] = NIH3T3 cell viability loss – ATP luminescence, mouse fibroblasts, counter-screen, dose response (AID 2010); type: functional, cell-based;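 further: cells exposed to compound for about 90 hours before reading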
[12] = fluconazole-exposed Candida albicans growth modulators – fluorescence, retest, confirmation (AID 2467); type: functional, cell-based
[13] = NIH-3T3 fibroblast cytotoxicity, dose response, cytotoxicity control, cell-based, fluorescence, Alamar Blue, secondary assay (AID 2327); type: functional;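 further: NIH-3T3 mouse fibroblasts cultured with fluconazole at 8 µg/mL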

Cc1sc(NC(=O)c2cc(-c3ccc(Cl)cc3)nc3ccccc23)c(C(N)=O)c1C
EC50 [1]: 15.3 µM (active)
EC50 [2]: 17.3 µM (active)

Cc1ccc(S(=O)(=O)NNC(=O)NC23CC4CC(CC(C4)C2)C3)cc1
AC50 [3]: 1.02 µM (active)

CC1=NN(c2ccccc2)C(=O)/C1=C/c1cc2cc(C)ccc2nc1N1CCCCC1
EC50 (H4): > 120 µM (inconclusive)
EC50 [1]: 25.2 µM (active)
EC50 [2]: 17.8 µM (active)
EC50 [4]: 17.1 µM (active)
EC50 [5]: 8.69 µM (active)

O=C(NC(=S)Nc1ccc(N2CCN(C(=O)c3ccccc3)CC2)cc1)c1cccs1
IC50 [6]: > 20 µM (inactive)

CN(C)CCNc1oc(COc2ccc(Cl)cc2Cl)nc1C#N
IC50 [6]: > 20 µM (inactive)
AC50 (Cytochrome P450 2D6): 14.1 µM (inconclusive)
AC50 (Cytochrome P450 1A2): 25.1 µM (inconclusive)

O=C(NCSc1ccncn1)c1ccccc1
AC50 [3]: 1.49 µM (active)

COc1cc(C(=O)Nc2ccc(Br)cc2C(=O)c2ccccc2Cl)cc(OC)c1OC
EC50 [1]: 29 µM (active)
EC50 [2]: 153 µM (active)

C#CCOCCOCCOCCNc1nc(N2CCN(C(=O)[C@H]([C@@H](C)CC)n3cc([C@@H](N)CC(C)C)nn3)CC2)nc(N2CCN(C(=O)[C@H]([C@@H](C)CC)n3cc([C@@H](N)CC(C)C)nn3)CC2)n1
IC50 [6]: > 20 µM (inactive)

Cc1ccc(OCCCC(=O)NNC(=O)c2ccccn2)cc1
IC50 [6]: > 20 µM (inactive)

O=C(N/N=C/c1ccc2c(c1)OCO2)c1ccc(COCC(F)(F)C(F)F)cc1
AC50 [7]: 1.12 µM (active)
IC50 [8]: 9.06 µM (active)

OC(CNCC1CCCO1)Cn1c2ccc(Br)cc2c2cc(Br)ccc21 (stereo not drawn)
EC50 [9]: 0.533 µM (active)
EC50 (Streptokinase A): 7.22 µM (active)
EC50 [1]: 4.46 µM (active)
EC50 (Streptococcus): 8.12 µM (active)
EC50 [10]: 3.18 µM (active)
EC50 [2]: 4.41 µM (active)
EC50 [11]: > 60 µM (inconclusive)
EC50 [12]: > 38 µM (not active)
EC50 [13]: 9.05 µM (inconclusive)
